# According to PubChem BioAssay AID258 (DTP/NCI, 2004):
# Where “and” joins values, the source holds several entries; their conditions need not be identical. Identical values can stand only once. Inconclusive results and toxic doses are left out.
# System: CD2F1 mice, L1210 leukemia sc, survival T/C
# Assay: NCI In Vivo Anticancer Drug Screen. Data for tumor model L1210 Leukemia (subcutaneous) in CD2F1 (CDF1) mice
# Details: endpoint: median survival time, higher = longer survival
# Procedure, shortened: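 Transplantable tumor-bearing mice were treated with compound; survival or tumor size measured and expressed as treated-group value (T) divided by vehicle-treated control value (C).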
compound,measurement,setting,value
O=c1[nH]c(=O)n(C2CC(O)C(CO)O2)cc1C(F)(F)F (stereo unspecified),T/C,"dose: 2.5 mg/kg/injection, schedule: Q01DX009 (ip), vehicle: saline with Tween-80",106 % of control
same,T/C,"dose: 5.0 mg/kg/injection, schedule: Q01DX009 (ip), vehicle: saline with Tween-80",114 % of control
same,T/C,"dose: 10.0 mg/kg/injection, schedule: Q01DX009 (ip), vehicle: saline with Tween-80",117 % of control and 121 % of control
same,T/C,"dose: 10.0 mg/kg/injection, schedule: Q01DX009 (sc), vehicle: saline",111 % of control and 122 % of control
same,T/C,"dose: 13.3 mg/kg/injection, schedule: Q01DX009 (sc), vehicle: saline with Tween-80",122 % of control
same,T/C,"dose: 20.0 mg/kg/injection, schedule: Q01DX009 (sc), vehicle: saline",111 % of control
same,T/C,"dose: 40.0 mg/kg/injection, schedule: Q01DX009 (ip), vehicle: saline with Tween-80",153 % of control
same,T/C,"dose: 40.0 mg/kg/injection, schedule: Q01DX009 (sc), vehicle: saline",118 % of control and 123 % of control
same,T/C,"dose: 60.0 mg/kg/injection, schedule: Q01DX009 (ip), vehicle: saline with Tween-80",156 % of control
same,T/C,"dose: 60.0 mg/kg/injection, schedule: Q01DX009 (sc), vehicle: saline with Tween-80",152 % of control
same,T/C,"dose: 80.0 mg/kg/injection, schedule: Q01DX009 (ip), vehicle: saline with Tween-80",150 % of control
same,T/C,"dose: 80.0 mg/kg/injection, schedule: Q01DX009 (sc), vehicle: saline with Tween-80",154 % of control
same,T/C,"dose: 90.0 mg/kg/injection, schedule: Q01DX009 (sc), vehicle: saline with Tween-80",167 % of control
same,T/C,"dose: 105.0 mg/kg/injection, schedule: Q01DX009 (sc), vehicle: saline with Tween-80",150 % of control
same,T/C,"dose: 120.0 mg/kg/injection, schedule: Q01DX009 (sc), vehicle: saline with Tween-80",158 % of control and 162 % of control
same,T/C,"dose: 135.0 mg/kg/injection, schedule: Q01DX009 (sc), vehicle: saline with Tween-80",162 % of control
same,T/C,"dose: 160.0 mg/kg/injection, schedule: Q01DX009 (ip), vehicle: saline with Tween-80",121 % of control
same,T/C,"dose: 160.0 mg/kg/injection, schedule: Q01DX009 (sc), vehicle: saline",120 % of control
same,T/C,"dose: 180.0 mg/kg/injection, schedule: Q01DX009 (sc), vehicle: saline with Tween-80",120 % of control
same,T/C,"dose: 180.0 mg/kg/injection, schedule: Q01DX009 (sc), vehicle: saline",161 % of control
same,T/C,"dose: 211.2 mg/kg/injection, schedule: Q01DX009 (sc), vehicle: saline with Tween-80",151 % of control
same,T/C,"dose: 240.0 mg/kg/injection, schedule: Q01DX009 (sc), vehicle: saline",158 % of control
same,T/C,"dose: 320.0 mg/kg/injection, schedule: Q01DX009 (ip), vehicle: saline with Tween-80",108 % of control
same,T/C,"dose: 320.0 mg/kg/injection, schedule: Q01DX009 (sc), vehicle: saline with Tween-80",156 % of control
same,T/C,"dose: 320.0 mg/kg/injection, schedule: Q01DX009 (sc), vehicle: saline",119 % of control
same,T/C,"dose: 960.0 mg/kg/injection, schedule: Q01DX009 (sc), vehicle: saline with Tween-80",122 % of control
Nc1n[nH]c2ccccc12,T/C,"dose: 25.0 mg/kg/injection, schedule: Q01DX005 (ip), vehicle: acid diluted with saline",102 % of control
same,T/C,"dose: 25.0 mg/kg/injection, schedule: Q01DX009 (ip), vehicle: acid diluted with saline",113 % of control
same,T/C,"dose: 50.0 mg/kg/injection, schedule: Q01DX005 (ip), vehicle: acid diluted with saline",106 % of control
same,T/C,"dose: 50.0 mg/kg/injection, schedule: Q01DX009 (ip), vehicle: acid diluted with saline",99 % of control
same,T/C,"dose: 100.0 mg/kg/injection, schedule: Q01DX005 (ip), vehicle: acid diluted with saline",104 % of control
same,T/C,"dose: 100.0 mg/kg/injection, schedule: Q01DX009 (ip), vehicle: acid diluted with saline",103 % of control
same,T/C,"dose: 200.0 mg/kg/injection, schedule: Q01DX005 (ip), vehicle: acid diluted with saline",110 % of control
Cc1cc(NCCCCCCCNc2cc(C)nc3cc(N)ccc23)c2ccc(N)cc2n1,T/C,"dose: 1.56 mg/kg/injection, schedule: Q01DX009 (ip), vehicle: water",100 % of control and 104 % of control and 98 % of control
same,T/C,"dose: 3.12 mg/kg/injection, schedule: Q01DX009 (ip), vehicle: water",109 % of control and 110 % of control and 121 % of control
same,T/C,"dose: 6.25 mg/kg/injection, schedule: Q01DX009 (ip), vehicle: water",120 % of control
same,T/C,"dose: 12.5 mg/kg/injection, schedule: Q01DX009 (ip), vehicle: water",156 % of control and 175 % of control
same,T/C,"dose: 25.0 mg/kg/injection, schedule: Q01DX009 (ip), vehicle: water",120 % of control
CO[C@@]12[C@H](COC(N)=O)C3=C(C(=O)C(C)=C(N)C3=O)N1C[C@@H]1N[C@@H]12,T/C,"dose: 0.7 mg/kg/injection, schedule: Q01DX Z (sc), vehicle: saline",100 % of control
same,T/C,"dose: 1.17 mg/kg/injection, schedule: Q01DX Z (sc), vehicle: saline",100 % of control
same,T/C,"dose: 1.95 mg/kg/injection, schedule: Q01DX Z (sc), vehicle: saline",100 % of control
same,T/C,"dose: 3.25 mg/kg/injection, schedule: Q01DX Z (sc), vehicle: saline",108 % of control
same,T/C,"dose: 9.03 mg/kg/injection, schedule: Q01DX Z (sc), vehicle: saline",116 % of control
CN1CCN(CN2C(=O)C3C4C=CC(C3C2=O)C2C3C(=O)N(CN5CCN(C)CC5)C(=O)C3C42)CC1 (stereo unspecified),T/C,"dose: 21.6 mg/kg/injection, schedule: Q01DX009 (ip), vehicle: water",106 % of control
same,T/C,"dose: 24.8 mg/kg/injection, schedule: Q01DX009 (ip), vehicle: water",118 % of control
same,T/C,"dose: 36.0 mg/kg/injection, schedule: Q01DX009 (ip), vehicle: water",113 % of control
same,T/C,"dose: 41.3 mg/kg/injection, schedule: Q01DX009 (ip), vehicle: water",150 % of control
same,T/C,"dose: 60.0 mg/kg/injection, schedule: Q01DX009 (ip), vehicle: water",170 % of control
same,T/C,"dose: 68.8 mg/kg/injection, schedule: Q01DX009 (ip), vehicle: water",174 % of control
same,T/C,"dose: 100.0 mg/kg/injection, schedule: Q01DX009 (ip), vehicle: water",243 % of control
same,T/C,"dose: 114.7 mg/kg/injection, schedule: Q01DX009 (ip), vehicle: water",235 % of control
CO[C@H](/C(C)=C/C=C/C(C)=C/c1coc(C)n1)[C@H](C)[C@H]1C[C@@H](O)[C@@]2(C)O[C@H]2/C=C/[C@@H](C)[C@@H]2C[C@@H](CC(=O)O2)C[C@H]2O[C@@H]2C(=O)O1,T/C,"dose: 0.25 mg/kg/injection, schedule: Q01DX009 (ip), vehicle: Klucel (hydroxypropylcellulose) (HPC)",107 % of control
same,T/C,"dose: 1.0 mg/kg/injection, schedule: Q01DX009 (ip), vehicle: Klucel (hydroxypropylcellulose) (HPC)",119 % of control
ONc1ncnc2nc[nH]c12,T/C,"dose: 50.0 mg/kg/injection, schedule: Q01DX Z (sc), vehicle: steriod suspending solution",112 % of control
same,T/C,"dose: 100.0 mg/kg/injection, schedule: Q01DX Z (sc), vehicle: steriod suspending solution",118 % of control
same,T/C,"dose: 400.0 mg/kg/injection, schedule: Q01DX Z (sc), vehicle: steriod suspending solution",168 % of control
Nc1nc2n[nH]nc2c(=O)[nH]1,T/C,"dose: 50.0 mg/kg/injection, schedule: Q01DX009 (sc), vehicle: saline",122 % of control
same,T/C,"dose: 75.0 mg/kg/injection, schedule: Q01DX009 (sc), vehicle: saline",114 % of control
CCn1cnc2c(SC)ncnc21,T/C,"dose: 65.0 mg/kg/injection, schedule: Q01DX Z (sc), vehicle: methylcellulose (MC)",100 % of control
same,T/C,"dose: 108.0 mg/kg/injection, schedule: Q01DX Z (sc), vehicle: methylcellulose (MC)",100 % of control
same,T/C,"dose: 180.0 mg/kg/injection, schedule: Q01DX Z (sc), vehicle: methylcellulose (MC)",100 % of control
NCCCNCCCCNC(=O)C(O)NC(=O)CCCCCCN=C(N)N (stereo unspecified),T/C,"dose: 0.75 mg/kg/injection, schedule: Q01DX009 (ip), vehicle: saline",156 % of control
same,T/C,"dose: 1.5 mg/kg/injection, schedule: Q01DX009 (ip), vehicle: saline",172 % of control
same,T/C,"dose: 1.56 mg/kg/injection, schedule: Q01DX009 (ip), vehicle: saline",162 % of control and 183 % of control
same,T/C,"dose: 3.0 mg/kg/injection, schedule: Q01DX009 (ip), vehicle: saline",192 % of control
same,T/C,"dose: 3.12 mg/kg/injection, schedule: Q01DX009 (ip), vehicle: saline",198 % of control and 203 % of control
same,T/C,"dose: 4.0 mg/kg/injection, schedule: Q01DX001 (ip), vehicle: saline",107 % of control
same,T/C,"dose: 4.0 mg/kg/injection, schedule: Q03HX008 (ip), vehicle: saline",121 % of control
same,T/C,"dose: 6.0 mg/kg/injection, schedule: Q01DX009 (ip), vehicle: saline",237 % of control
same,T/C,"dose: 6.25 mg/kg/injection, schedule: Q01DX009 (ip), vehicle: saline",207 % of control and 235 % of control
same,T/C,"dose: 8.0 mg/kg/injection, schedule: Q01DX001 (ip), vehicle: saline",103 % of control and 109 % of control
same,T/C,"dose: 12.0 mg/kg/injection, schedule: Q01DX009 (ip), vehicle: saline",239 % of control
same,T/C,"dose: 12.5 mg/kg/injection, schedule: Q01DX009 (ip), vehicle: saline",228 % of control and 231 % of control
same,T/C,"dose: 16.0 mg/kg/injection, schedule: Q01DX001 (ip), vehicle: saline",107 % of control and 113 % of control
same,T/C,"dose: 25.0 mg/kg/injection, schedule: Q01DX009 (ip), vehicle: saline",160 % of control and 220 % of control and 275 % of control
same,T/C,"dose: 32.0 mg/kg/injection, schedule: Q01DX001 (ip), vehicle: saline",115 % of control and 123 % of control
